Test results as given in US12268666B2, “Spray-dried dispersions, formulations, and polymorphs of (S)-5-amino-3-(4-((5-fluoro-2-methoxybenzamido)methyl)phenyl)-1-(1,1,1-trifluoropropan-2-yl)-1H-pyrazole-4-carboxamide” (Loxo Oncology, Inc., priority 2018, dated 2025).
Entries after “also recorded” stand apart in the source; their conditions may differ.

Legend:
BTK E41K = biological target: T1, BTK E41K (Homo sapiens, UniProt Q06187, E41K); assay: BTK activity assay, [33P]-ATP incorporation into poly-EY; type: biochemical; conditions: ATP at Km concentration
T1 construct: against full-length wild type (WT) and mutant human BTK enzymes
T1 sequence (Q06187 whole entry E41K): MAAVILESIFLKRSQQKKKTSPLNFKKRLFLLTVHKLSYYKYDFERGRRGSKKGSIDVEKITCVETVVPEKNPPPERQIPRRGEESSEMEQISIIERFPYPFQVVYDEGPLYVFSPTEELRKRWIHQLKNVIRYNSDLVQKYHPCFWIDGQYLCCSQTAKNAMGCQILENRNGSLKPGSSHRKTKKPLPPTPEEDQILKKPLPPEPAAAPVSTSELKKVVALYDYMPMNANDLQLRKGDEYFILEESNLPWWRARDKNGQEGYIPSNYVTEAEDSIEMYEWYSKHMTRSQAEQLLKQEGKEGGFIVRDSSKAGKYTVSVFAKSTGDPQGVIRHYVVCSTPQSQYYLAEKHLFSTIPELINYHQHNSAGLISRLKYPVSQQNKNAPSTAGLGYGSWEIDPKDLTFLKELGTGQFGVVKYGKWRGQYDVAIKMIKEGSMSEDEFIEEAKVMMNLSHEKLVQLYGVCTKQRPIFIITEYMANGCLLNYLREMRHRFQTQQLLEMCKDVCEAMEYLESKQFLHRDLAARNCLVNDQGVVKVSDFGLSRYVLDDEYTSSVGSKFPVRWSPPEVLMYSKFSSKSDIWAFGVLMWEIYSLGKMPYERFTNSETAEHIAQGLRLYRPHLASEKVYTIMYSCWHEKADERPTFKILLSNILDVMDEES
Method: (§1) The reaction mixtures each contained polyhistidine-tagged BTK enzyme, poly-EY and BTK inhibitor at the appropriate concentrations. The reaction mixtures are incubated for 20 minutes at room temperature after which [[γ-^33P]-ATP (radiochemical concentration 10 μCi/μL) at 10 μM or the ATP Km concentration for each enzyme is added. After 2 hours of incubation at room temperature, the radiolabeled peptide substrate is captured, and incorporated radioactivity is quantified.

BTK P190K = biological target: T2, BTK P190K (Homo sapiens, UniProt Q06187, P190K); assay: as above; type: biochemical; conditions: ATP at Km concentration
T2 construct: against full-length wild type (WT) and mutant human BTK enzymes
T2 sequence (Q06187 whole entry P190K): as the sequence (Q06187 whole entry E41K) above, with K41E, P190K counted along it
Method: as §1

[1] = Aqueous solubility at different pH values; type: physicochemical
[2] = Kinetic solubility in FaSSGF, FaSSIF and FeSSIF media; type: physicochemical; conditions: kinetic from dmso stock
Method: The solubility of the compound of Formula I is also tested under conditions that simulate gut fluids (Fasted State Simulated Intestinal Fluid [FaSSIF], Fed State Simulated Intestinal Fluid [FeSSIF], and Fasted State Simulated Gastric Fluid [FaSSGF]) as shown in Table 9.

[3] = Solubility screening in lipid vehicles; type: physicochemical
Method: The solubility of the compound of Formula I in lipid vehicles is also examined. The compound of Formula I Form A is added into a clear, 20 mL glass vials followed by the corresponding excipients, e.g., MIGLYOL® 812 (saturated coconut and palmkernel oil-derived caprylic and capric fatty acids and glycerin, e.g., C8 and C10 triglycerides), CAPMUL® MCM EP (glyceryl monocaprylocaprate type I (EP)), PECEOL™ (glycerol monooleates (type 40) EP, glyceryl monooleate (type 40) NF), LABRAFIL® M2125CS (linoleoyl polyoxyl-6 glycerides), LAUROGLYCOL™ FCC (propylene glycol monolaurate (type I)), Span® 80 (sorbitane monooleate), PHOSAL® 53 MCT (lecithin in caprylic/capric triglycerides, alcohol, glyceryl stearate, oleic acid, and ascorbyl palmitate), or capmul PG-8 (propylene glycol monocaprylate). The samples are then homogenized with a handheld homogenizer for 10 minutes until the compound of Formula I is visibly dissolved. […] A set of matching control formulations are also prepared.

BTK C481S [4] = biological target: T3, BTK C481S (Homo sapiens, UniProt Q06187, C481S); assay: Y223 autophosphorylation in HEK293 cells stably expressing BTK C481S; type: cell-based; set-up: expressed in transfected cells; host or cells: HEK293; conditions: C481S mutant, 2 hr treatment, signal normalized to total BTK
T3 sequence (Q06187 whole entry C481S): as the sequence (Q06187 whole entry E41K) above, with K41E, C481S counted along it
Method: HEK293 cell lines stably expressing BTK wild type and the mutant form C481S are generated using standard transfection methods. For assessment of cellular inhibition potency, cells are grown in DMEM +10% Fetal Bovine Serum (FBS)+1 μg/ml puromycin (complete growth media) at 37° C. in a CO2 incubator. Cells are harvested according to standard protocols using TRYPLE™ (Gibco #12604-013), counted, resuspended in complete growth media, and added to 6 well assay plates at 4×10 ^5 cell/well in 2 mL. Plates are incubated overnight at 37° C. with 5% CO2. […] All samples are tested in triplicate. Following compound incubation, the growth medium is discarded, cells are washed with DPBS (1×) (Gibco #14190-144) and lysed in 1 mL of […]™ M (Sigma #C2978) containing 1× Halt phosphatase and protease inhibitor cocktails (Pierce #78442). Plates are placed on ice for 1 hr with gentle agitation and stored at −80° C. overnight. The next day, cell lysates are placed in 1.5 mL tubes and cleared by centrifugation at 16,000×g for 10 min at 4° C. Supernatants are quantified by BCA (Pierce #23225) and stored at −80° C. Samples are analyzed by Simple Western (Protein Simple) with anti-phospho-BTK (Y223) (Cell Signaling Technologies (CST) #5082) and anti-BTK (CST #8547) (FIGS. 10A and 10B). β-actin is used as a loading control and detected by regular Western blot with an anti-3-actin antibody (CST #4970).

BTK C481S [5] = biological target: T3, BTK C481S; assay: BTK activity assay, [33P]-ATP incorporation into poly-EY; type: biochemical; set-up: against full-length wild type (WT) and mutant human BTK enzymes
Method: The activity of the compound of Formula I against full-length wild type (WT) and mutant human BTK enzymes is determined by monitoring the incorporation [^33P]-PO4 from [γ-^33P]-ATP into poly-glutamic acid-tyrosine (poly-EY) peptide substrate. The reaction mixtures each contained polyhistidine-tagged BTK enzyme, poly-EY and BTK inhibitor at the appropriate concentrations. The reaction mixtures are incubated for 20 minutes at room temperature after which [[γ-^33P]-ATP (radiochemical concentration 10 μCi/μL) at 10 μM or the ATP Km concentration for each enzyme is added. After 2 hours of incubation at room temperature, the radiolabeled peptide substrate is captured, and incorporated radioactivity is quantified.
Each assay is performed at an ATP concentration close to the Km for each enzyme. […] After co-incubation with a serial dilution of the compound of Formula I, the quantity of ^33P incorporated into a peptide substrate is measured and the data analyzed using standard curve fitting methods.

[6] = FaSSGF (Fasted State Simulated Gastric Fluid), fassgf or other biorelevant, pH 1.6 FaSSGF
[7] = FaSSIF (Fasted State Simulated Intestinal Fluid), pH 6.5 FaSSIF
[8] = FeSSIF (Fed State Simulated Intestinal Fluid), pH 6.5 FeSSIF

## COc1ccc(F)cc1C(=O)NCc1ccc(-c2nn([C@@H](C)C(F)(F)F)c(N)c2C(N)=O)cc1 [compound of Formula I, (S)-5-amino-3-(4-((5-fluoro-2-methoxybenzamido)methyl)phenyl)-1-(1,1,1-trifluoropropan-2-yl)-1H-pyrazole-4-carboxamide]
BTK E41K
  IC50: 7.85 nM
BTK P190K
  IC50: 2.14 nM
[1]; aqueous solution, aqueous buffer, between pH 1 to pH 10
  solubility: 14 to 17 µg/mL
[1]; aqueous solution, aqueous buffer, pH 3, actual media pH 3.03
  solubility: 14 µg/mL
[1]; aqueous solution, aqueous buffer, pH 4, actual media pH 4.04
  solubility: 14 µg/mL
[1]; aqueous solution, aqueous buffer, pH 6, actual media pH 6.04
  solubility: 14 µg/mL
[1]; aqueous solution, aqueous buffer, pH 8, actual media pH 8.02
  solubility: 14 µg/mL
[1]; aqueous solution, aqueous buffer, pH 10, actual media pH 9.98
  solubility: 14 µg/mL
[1]; aqueous solution, simulated gastric fluid, pH 1.5, actual media pH 1.49
  solubility: 15 µg/mL
[1]; aqueous solution, simulated gastric fluid, pH 2, actual media pH 2.06
  solubility: 15 µg/mL
[1]; simulated gastric fluid, (0.1 N HCl) pH 1, actual media pH 1.09
  solubility: 17 µg/mL
[2]; [6]
  solubility kinetic at 4 h: 22 µg/mL
  solubility kinetic at 24 h: 24 µg/mL
[2]; [7]
  solubility kinetic at 4 h: 23 µg/mL
  solubility kinetic at 24 h: 20 µg/mL
[2]; [8]
  solubility kinetic at 4 h: 44 µg/mL
  solubility kinetic at 24 h: 47 µg/mL
[3]; CAPMUL ® MCM EP, 40 °C
  HPLC Solubility: 33.3 mg API per g mixture
[3]; Capmul PG-8, 25 °C
  HPLC Solubility: 30.3 mg API per g mixture
[3]; Glycerine, 25 °C
  HPLC Solubility: 0.5 mg API per g mixture
[3]; KOLLIPHOR ® EL, 25 °C
  HPLC Solubility: 46.2 mg API per g mixture
[3]; LABRAFIL ® M2125CS, 25 °C
  HPLC Solubility: 3.2 mg API per g mixture
[3]; LABRASOL ® ALF, 25 °C
  HPLC Solubility: 104.1 mg API per g mixture
[3]; LAUROGLYCOL ™ FCC, 25 °C
  HPLC Solubility: 5.1 mg API per g mixture
[3]; Long chain triglycerides/long chain lipid digestion products, 25 °C
  HPLC Solubility: 0.02 mg API per g mixture
[3]; MIGLYOL ® 812, 25 °C
  HPLC Solubility: 0.62 mg API per g mixture
[3]; Medium chain triglycerides/medium chain lipid digestion products, 25 °C
  HPLC Solubility: 0.02 mg API per g mixture
[3]; Oleic acid, 25 °C
  HPLC Solubility: 1.2 mg API per g mixture
[3]; PECEOL ™, 40 °C
  HPLC Solubility: 6.6 mg API per g mixture
[3]; PEG-400 (Macrogol 400), 25 °C
  HPLC Solubility: 168.9 mg API per g mixture
[3]; PHOSAL ® 53 MCT, 25 °C
  HPLC Solubility: 11.3 mg API per g mixture
[3]; Polysorbate 80/Tween-80, 25 °C
  HPLC Solubility: 43.6 mg API per g mixture
[3]; Propylene glycol, 25 °C
  HPLC Solubility: 29.4 mg API per g mixture
[3]; SPAN ® 80, 25 °C
  HPLC Solubility: 6.2 mg API per g mixture
[3]; Sesame oil, 25 °C
  HPLC Solubility: 0.07 mg API per g mixture
[3]; Vitamin E-TPGS NF, 40 °C
  HPLC Solubility: 43.1 mg API per g mixture
[3]; excipient screen for lipid-based formulations
  excipients in which solubility is best: best in PEG 400, LABRASOL® ALF (e.g., caprylocaproyl polyoxyl-8 glycerides), KOLLIPHOR® EL (e.g., polyoxyl castor oil), Tween 80, and Vitamin E TPGS; also recorded: most soluble in LABRASOL® ALF and PEG-400
BTK C481S [4]
  IC50: 8.8 ± 1.8 nM
BTK C481S [5]; 10 μM ATP, read-out: IC50
  IC50: 0.29 nM
BTK C481S [5]; ATP at Km concentration, read-out: IC50 value
  IC50: 1.42 nM
